Data reported in patent EP4509511A1, “SUBSTITUTED SPIRO-ISOXAZOLINYL LACTAMS, SALTS THEREOF AND THEIR USE AS HERBICIDALLY ACTIVE SUBSTANCES” (Bayer Aktiengesellschaft, priority 2023, dated 2025).

Tests used:
POAAN = assay: Herbicidal pre-emergence action - Part I; format: in vivo, Poa annua; details: visual grading after ca. 3 weeks vs untreated controls
Procedure, shortened: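 Visual % injury, ~3 weeks post-application, relative to untreated pots. Treatment: aqueous WP/EC preparation with 0.5% additive sprayed pre-emergence on soil at 600 l/ha, application rate 1280 g/ha or less.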

MATIN = assay: Herbicidal post-emergence action - Part I; format: in vivo, Matricaria inodora; details: one-leaf stage, rated visually after about 3 weeks vs untreated controls
Procedure, shortened: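 Activity was scored visually as % damage (100% = dead, 0% = like untreated) about 3 weeks after treatment. Plants at the one-leaf stage, 2-3 weeks old, were sprayed with WP/EC formulations plus 0.5% additive (600 L/ha water, up to 1280 g/ha). Plants were grown in sandy loam in a greenhouse.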

AMARE = assay: Herbicidal pre-emergence action - Part II; format: in vivo, Amaranthus retroflexus; details: visual grading after ca. 3 weeks vs untreated controls
Source text: (§1) Seeds of mono- and dicotyledonous weed plants and crop plants were sown, in plastic or organic planting pots, in sandy loam and covered with soil. The compounds according to the invention, formulated in the form of wettable powders (WP) or as emulsifiable concentrates (EC), were applied to the surface of the covering soil as aqueous suspension or emulsion, with the addition of 0.5% of an additive, at an application rate of 600 1 of water/ha (converted). Following treatment, the pots were placed in a greenhouse and kept under optimum growth conditions for the test plants. The visual grading of the damage to the test plants was carried out after ca. 3 weeks in comparison to untreated controls (herbicidal effect in percent (%): 100% effect = plants have died off, 0% effect = as control plants). Tables C1 to C12 below show the effects of selected compounds of the general formula (I) according to table 1 on various harmful plants and an application rate corresponding to 320 g/ha or below obtained by the experimental procedure mentioned above. Table C1: pre-emergence activity at 320g/ha against ABUTH in %

DIGSA = assay: Herbicidal pre-emergence action - Part II; format: in vivo, Digitaria sanguinalis
Source text: as §1

ECHCG = assay: Herbicidal pre-emergence action - Part II; format: in vivo, Echinochloa crus-galli
Source text: as §1

LOLRI = assay: Herbicidal pre-emergence action - Part II; format: in vivo, Lolium rigidum; details: 320 g/ha; Table C7
Source text: as §1

ZEAMX = assay: Pre-emergence effects on crop plants; format: in vivo, Zea mays; details: crop plant
Source text: (§2) Seeds of mono- and dicotyledonous weed plants and crop plants were sown, in plastic or organic planting pots, in sandy loam and covered with soil. The compounds according to the invention, formulated in the form of wettable powders (WP) or as emulsifiable concentrates (EC), were applied to the surface of the covering soil as aqueous suspension or emulsion, with the addition of 0.5% of an additive, at an application rate of 600 1 of water/ha (converted). Following treatment, the pots were placed in a greenhouse and kept under optimum growth conditions for the test plants. The visual grading of the damage to the test plants was carried out after ca. 3 weeks in comparison to untreated controls (herbicidal effect in percent (%): 100% effect = plants have died off, 0% effect = as control plants). Tables D1 to D5 below show the effects of various compounds of the general formula (I) according to Table 1 on various crop plants and an application rate corresponding to 320 g/ha or below obtained by the experimental procedure mentioned above in Biological Examples, Section C. Table […]: pre-emergence activity at 320g/ha against ZEAMX in %

ORYZA = assay: Pre-emergence effects on crop plants; format: in vivo, Oryza sativa; details: crop plant
Source text: as §2

GLXMA [1] = assay: Pre-emergence effects on crop plants; format: in vivo, Glycine max; details: crop plant
Source text: as §2

TRZAS = assay: Post-emergence effects on crop plants; format: in vivo, Triticum aestivum; details: crop plant
Procedure, shortened: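 Crop plants were grown in sandy loam in the greenhouse and sprayed at the single-leaf stage, 2–3 weeks after sowing, with WP or EC formulations plus 0.5% additive in 600 l water/ha, at rates of 320 g/ha or below. Injury was scored visually about 3 weeks later as % effect versus untreated controls (100% = plants dead).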

GLXMA [2] = assay: Post-emergence effects on crop plants; format: in vivo, Glycine max; details: crop plant
Source text: Seeds of mono- and dicotyledonous weed plants and crop plants were sown, in plastic or organic planting pots, in sandy loam, covered with soil and grown in a greenhouse under controlled growth conditions. 2 to 3 weeks after sowing, the test plants were sprayed in the single-leaf stage. The compounds according to the invention, formulated in form of wettable powders (WP) or as emulsifiable concentrates (EC), were sprayed onto the green plant parts as aqueous suspension or emulsion, with the addition of 0.5% of an additive, at an application rate of 600 1 of water/ha (converted). The test plants were placed in the greenhouse for ca. 3 weeks under optimum growth conditions, and then the effect of the preparations was assessed visually in comparison with untreated controls (herbicidal effect in percent (%): 100% effect = plants have died off, 0% effect = as control plants). Tables F1 to F5 below show the effects of selected compounds of the general formula (I) according to table 1 on various crop plants and an application rate corresponding to 320 g/ha or below obtained by the experimental procedure mentioned above. Table […]: post-emergence activity at 5g/ha against ZEAMX in %

Structure (SMILES) | pre-emergence activity at 320g/ha and against POAAN in % (POAAN) [%] | pre-emergence activity at 1280g/ha and against POAAN in % (POAAN) [%] | post-emergence activity at 320g/ha against MATIN in % (MATIN) [%] | post-emergence activity at 1280g/ha against MATIN in % (MATIN) [%] | pre-emergence activity at 320g/ha against AMARE in % (AMARE) [%] | pre-emergence activity against DIGSA (DIGSA; 320 g/ha, Table C5a) [%] | pre-emergence activity against ECHCG (ECHCG; 320 g/ha, Table C6a) [%] | pre-emergence activity against LOLRI (LOLRI) [%] | pre-emergence activity against ZEAMX (ZEAMX; 80 g/ha, Table D1b) [%] | pre-emergence activity against ZEAMX (ZEAMX; 320 g/ha, Table D1a) [%] | pre-emergence activity against ORYZA (ORYZA; 80 g/ha, Table D3b) [%] | pre-emergence activity against GLXMA (GLXMA [1]; 80 g/ha, Table D4b) [%] | post-emergence activity against TRZAS (TRZAS; 80 g/ha, Table F2c) [%] | post-emergence activity against TRZAS (TRZAS; 320 g/ha, Table F2d) [%] | post-emergence activity against GLXMA (GLXMA [2]; 80 g/ha, Table F4c) [%] | other results
Cc1ccsc1C1=NOC2(CCCN(Cc3c(F)cccc3F)C2=O)C1 (racemic) [Compound I-2] | 100 | 100 | 90 | 90 | 90 | 100 | 100 | 90 | 0 | 0 | 0 | 0 | 0 | 0 | 0 | pre-emergence activity at 80g/ha and against POAAN in % (POAAN; 80 g/ha): 100%; pre-emergence activity against DIGSA (DIGSA; 80 g/ha, Table C5b): 90%; pre-emergence activity against ECHCG (ECHCG; 80 g/ha, Table C6b): 90%
O=C1N(Cc2ccccc2F)CCC12CC(c1c(F)cccc1F)=NO2 (racemic) [Compound I-10] | 90 | 100 | 90 | 90 | 80 | 90 | 90 | 80 | 0 | 0 | 0 | 10 | 0 | 10 | 0 | 
Cc1ccsc1C1=NOC2(CCN(Cc3c(F)cccc3F)C2=O)C1 (racemic) [Compound I-16, 7-(2,6-Difluorobenzyl)-3-(3-methyl-2-thienyl)-1-oxa-2,7-diazaspiro[4.4]non-2-en-6-one] | 100 | 100 |  | 90 | 80 | 80 | 90 | 100 | 10 | 20 | 0 | 10 | 0 | 0 | 0 | pre-emergence activity against ORYZA (ORYZA; Table D3a, title: 320g/ha, application rate: 80 g/ha): 20%; pre-emergence activity against GLXMA (GLXMA [1]; Table D4a, title: 320g/ha, application rate: 80 g/ha): 20%; post-emergence activity against GLXMA (GLXMA [2]; Table F4d, title: 320 g/ha, application rate: 80 g/ha): 0%
